Converted amounts (≈) assume the structure as drawn. Like-named read-outs stand apart in the source and are kept apart here.
How the values were obtained:
[1] = Whole blood-to-plasma partition, human blood; format: in vitro ADME
Method: The whole blood and plasma samples were incubated at 37°C for up to 1 h. Serial samples (150 µL) were collected at different time points (0, 10, and 60 min) and transferred into new tubes. The whole blood samples were then centrifuged at 1700 g for 15 min to harvest plasma.

Solubility = format: physicochemical; settings: water, pH 7.78
CYP2B6 mRNA = assay: CYP induction in human hepatocytes, CYP2B6 mRNA (RT-PCR)
Method: (§1) […] […] […] Enzyme activity for each CYP isoform was reported as a fold change over vehicle control and the percent of positive control (detailed calculation in Supplementary 1.1). Hepatocytes were harvested with a lysis buffer from RNeasy 96 Kit (Qiagen Inc., Germantown, MD, USA) to isolate RNA, which was analyzed by real-time quantitative polymerase chain reaction (RT-PCR). […] Emax (the maximal observed induction) and EC50 (the concentration that supports half-maximal induction) were estimated by non-linear regression of fold increase in CYP mRNA expression versus concentration plots.
(§2) % of positive control = [(fold change in treated sample)-1] / [(fold change in positive control)-1] × 100
(§3) Based on the gene expression, a minimum of 4-fold increase of positive control compared to vehicle control, a minimum of 2-fold increase of the test article compared vehicle control and increased in a concentration-dependent manner was considered as the cutoff for a positive signal in in vitro induction assay.

CYP1A2 = target: T1, CYP1A2 (Homo sapiens, UniProt P05177); assay: Time-dependent CYP inhibition in HLM, CYP1A2; format: in vitro ADME; settings: 10 μM, 30 min pre-incubation with NADPH
T1 construct: tissue Life Technologies (Durham, NC, USA); host or cells: human liver microsomes
T1 sequence (P05177 1-516): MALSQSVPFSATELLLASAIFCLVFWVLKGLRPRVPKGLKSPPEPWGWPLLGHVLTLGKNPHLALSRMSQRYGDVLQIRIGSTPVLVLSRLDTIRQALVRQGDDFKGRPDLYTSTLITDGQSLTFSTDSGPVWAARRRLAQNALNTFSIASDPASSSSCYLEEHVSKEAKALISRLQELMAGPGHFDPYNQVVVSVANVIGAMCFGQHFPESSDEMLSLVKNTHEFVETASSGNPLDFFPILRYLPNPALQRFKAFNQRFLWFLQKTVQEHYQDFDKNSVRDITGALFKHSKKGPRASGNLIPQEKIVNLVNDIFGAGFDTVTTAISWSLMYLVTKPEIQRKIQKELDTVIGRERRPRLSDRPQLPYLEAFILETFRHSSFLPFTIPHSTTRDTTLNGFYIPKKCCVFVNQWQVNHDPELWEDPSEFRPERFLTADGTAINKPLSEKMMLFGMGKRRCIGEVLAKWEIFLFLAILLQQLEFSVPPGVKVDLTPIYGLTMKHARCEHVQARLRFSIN
Method: The procedure of time-dependent CYP inhibition was similar to that used for CYP reversible inhibition, as mentioned above, except that a pre-incubation step was added. […] Another appropriate volume of the NADPH-regenerating system and probe substrate were added to initiate the CYP isoform enzyme activity test step. For this step, the incubation period was 10 min, except for CYP2B6, CYP2C8, and CYP3A4/5 (probe substrate: midazolam), which was 3 min to make sure the reaction was under initial linear rates. After incubation for the designated time periods at 37°C, the ice-cold acetonitrile containing IS was added to quench the reaction. […] (Ainactivator/[…] represents the enzyme activity remaining due to the inhibition by the diluted inactivator in the enzyme activity test step, and (Ainactivator/[…] represents the remaining enzyme activity due to pre-incubation loss plus inhibition by the diluted inactivator in the enzyme activity test step.

CYP2B6 = settings: male, human, 48 h
Method: as §1
The fold of vehicle control and the percent of positive control were calculated with the formulas below:
Fold of vehicle control = CYPs activity of test compound (or positive control) treated sample / CYPs activity of vehicle control treated sample
as §2
Based on the enzyme activity, a minimum of 2-fold increase compared to vehicle control for the positive control and ≥40% of the positive control for the test article was considered as the cutoff for a positive signal in in vitro induction assay.

plasma proteins = assay: Plasma protein binding (RED), rat plasma; format: in vitro ADME
Method: The plate containing plasma and buffer was equilibrated for 6 h in a 37°C water shaking bath. After incubation, aliquots of buffer and plasma (20 µL) on both sides were collected and precipitated using organic solvents. […] The post-dialysis recovery of amdizalisib was also measured.

[2] = Metabolic stability in rat liver microsomes; format: in vitro ADME; settings: for CLint scaled at 1 µM: pH 7.4, Predicted CL int, iv vivo
Method: FMO was deactivated by heating liver microsomes at 45°C for 5 min. […] (1) metabolic clearance is the major mechanism of clearance; (2) liver is the major organ of clearance; and (3) oxidation is the major metabolic pathway. CLint,in vitro=k / Cmicrosomes , Scaled CLint,in vivo=CLint,in vitro×microsomes yield×liver weight, where Cmicrosomes means the experimental protein concentration (0.5 mg/mL) in the incubation system.

CYP1A2 mRNA = assay: in vitro; settings: human; for EC50 at 48 h: EC50, CYP1A2 expression
Method: as §1, §2, §3

CYP2C8 mRNA = assay: CYP induction in human hepatocytes, CYP2C8 mRNA (RT-PCR)
Method: as §1, §2, §3

Q: For `C[C@H](Nc1ncnc(N)c1C#N)c1cc2ncc(Cl)n2nc1-c1ccccc1` [Amdizalisib], which fuB ([1]; human blood, 0 min) is on record?
A: 11.7%

Q: And the RB ([1]; human, 0 min, 1 µM)?
A: 0.615

Q: What about the fup ([1]; human, 1 µM) of the same molecule?
A: 0.0720

Q: What about the RB ([1]; human, 10 min, 1 μM) of the same molecule?
A: 0.680

Q: What about the fuB ([1]; human, 10 min, 1 μM) of the same molecule?
A: 10.6%

Q: And the RB ([1]; human, 60 min, 1 μM)?
A: 0.797

Q: And the fuB ([1]; human, 60 min, 1 μM)?
A: 9.02%

Q: And the solubility (Solubility)?
A: 25 µg/mL (≈ 64 µM)

Q: And the “R3 value (CYP2B6 induction, basic kinetic model)” value (CYP2B6 mRNA)?
A: ≤ 0.8

Q: And the “induction on CYP2B6 mRNA expression” value (CYP2B6 mRNA; 20 uM)?
A: >2-fold induction on CYP1A2, 2B6, 3A4, 2C9 mRNA expression at 20 uM

Q: And the “Gene expression Percent of PC (%)” value (CYP2B6 mRNA; CYP2B6, donor seven, 1 µM)?
A: 9.50%

Q: What about the “Gene expression Percent of PC (%)” value (CYP2B6 mRNA; CYP2B6, donor seven, 3 µM) of the same molecule?
A: 1.70%

Q: And the “Gene expression Percent of PC (%)” value (CYP2B6 mRNA; CYP2B6, donor seven, 10 µM)?
A: 60.8%

Q: What about the “Gene expression Percent of PC (%)” value (CYP2B6 mRNA; CYP2B6, donor seven, 20 µM) of the same molecule?
A: 22.4%

Q: And the “Gene expression Percent of PC (%)” value (CYP2B6 mRNA; CYP2B6, donor seven, 30 µM)?
A: 43.7%

Q: And the “Gene expression Percent of PC (%)” value (CYP2B6 mRNA; CYP2B6, donor six, 1 µM)?
A: 2.50%

Q: What about the “Gene expression Percent of PC (%)” value (CYP2B6 mRNA; CYP2B6, donor six, 3 µM) of the same molecule?
A: 5.50%

Q: And the “Gene expression Percent of PC (%)” value (CYP2B6 mRNA; CYP2B6, donor six, 10 µM)?
A: 34.3%

Q: What about the “Gene expression Percent of PC (%)” value (CYP2B6 mRNA; CYP2B6, donor six, 20 µM) of the same molecule?
A: 36.8%

Q: And the “Gene expression Percent of PC (%)” value (CYP2B6 mRNA; CYP2B6, donor six, 30 µM)?
A: 25.2%

Q: And the “Gene expression Percent of PC (%)” value (CYP2B6 mRNA; CYP2B6, donor two, 1 µM)?
A: 5.40%

Q: And the “Gene expression Percent of PC (%)” value (CYP2B6 mRNA; CYP2B6, donor two, 3 µM)?
A: 2.30%

Q: What about the “Gene expression Percent of PC (%)” value (CYP2B6 mRNA; CYP2B6, donor two, 10 µM) of the same molecule?
A: 29.6%

Q: And the “Gene expression Percent of PC (%)” value (CYP2B6 mRNA; CYP2B6, donor two, 20 µM)?
A: 18.1%

Q: What about the “Gene expression Percent of PC (%)” value (CYP2B6 mRNA; CYP2B6, donor two, 30 µM) of the same molecule?
A: 39.0%

Q: What about the “Emax, CYP2B6 expression” value (CYP2B6 mRNA; donor seven) of the same molecule?
A: 5.42 fold

Q: What about the “Emax, CYP2B6 expression” value (CYP2B6 mRNA; donor six) of the same molecule?
A: 7.94 fold

Q: What about the “Emax, CYP2B6 expression” value (CYP2B6 mRNA; donor two) of the same molecule?
A: 3.39 fold

Q: What about the “activity loss of CYP1A2” value (CYP1A2) of the same molecule?
A: less than 10%

Q: And the “Enzyme activity Percent of PC (%)” value (CYP2B6; 1 µM)?
A: 2.60%

Q: What about the “Enzyme activity Percent of PC (%)” value (CYP2B6; 3 µM) of the same molecule?
A: 3.00%

Q: And the “Enzyme activity Percent of PC (%)” value (CYP2B6; 10 µM)?
A: 3.10%

Q: What about the “Enzyme activity Percent of PC (%)” value (CYP2B6; 20 µM) of the same molecule?
A: -11.1%

Q: What about the “Enzyme activity Percent of PC (%)” value (CYP2B6; 30 µM) of the same molecule?
A: -13.3%

Q: And the “Binding fraction to plasma proteins, Rat” value (plasma proteins; 0.1 µM)?
A: 87.2 ± 1.72%

Q: And the “Binding fraction to plasma proteins, Rat” value (plasma proteins; 1 µM)?
A: 90.2 ± 0.65%

Q: What about the “Binding fraction to plasma proteins, Rat” value (plasma proteins; 20 µM) of the same molecule?
A: 89.9 ± 0.37%

Q: What about the “Predicted CL sys” value ([2]; female rat liver microsomes, normal) of the same molecule?
A: 10.7 mL/min/kg

Q: What about the CLint scaled at 1 µM ([2]; female, rat, microsomes) of the same molecule?
A: 13.3 mL/min/kg

Q: What about the half-life at 1 µM ([2]; female, rat, microsomes, pH 7.4, in vitro t1/2) of the same molecule?
A: 187 min

Q: What about the CLint scaled at 1 µM ([2]; male, rat, microsomes) of the same molecule?
A: 65.9 mL/min/kg

Q: What about the half-life at 1 µM ([2]; male, rat, microsomes, pH 7.4, in vitro t1/2) of the same molecule?
A: 37.9 min

Q: And the half-life at 1 µM ([2]; pH 7.4, male rat liver microsomes, FMO deactivation, read-out: in vitro t1/2)?
A: 41.7 min

Q: And the “induction on CYP1A2 mRNA expression” value (CYP1A2 mRNA; both, hepatocytes, 48 h, 20 µM)?
A: >2-fold induction on CYP1A2, 2B6, 3A4, 2C9 mRNA expression at 20 uM

Q: What about the EC50 at 48 h (CYP1A2 mRNA; female) of the same molecule?
A: 9.57 µM

Q: What about the “Gene expression Percent of PC (%)” value (CYP1A2 mRNA; male, 48 h, 1 µM) of the same molecule?
A: 3.60%

Q: And the “Gene expression Percent of PC (%)” value (CYP1A2 mRNA; male, 48 h, 3 µM)?
A: 0.30%

Q: And the “Gene expression Percent of PC (%)” value (CYP1A2 mRNA; male, 48 h, 10 µM)?
A: 10.7%

Q: What about the “Gene expression Percent of PC (%)” value (CYP1A2 mRNA; male, 48 h, 20 µM) of the same molecule?
A: 8.20%

Q: What about the “Gene expression Percent of PC (%)” value (CYP1A2 mRNA; male, 48 h, 30 µM) of the same molecule?
A: 14.2%

Q: What about the EC50 at 48 h (CYP1A2 mRNA; male) of the same molecule?
A: 7.73 µM

Q: What about the “Gene expression Percent of PC (%)” value (CYP2C8 mRNA; CYP 2C8, donor four, 3 µM) of the same molecule?
A: 14.5%

Q: What about the “Gene expression Percent of PC (%)” value (CYP2C8 mRNA; female, human, 48 h, 0.3 µM) of the same molecule?
A: 7.24%

Q: And the “Gene expression Percent of PC (%)” value (CYP2C8 mRNA; female, human, 48 h, 3 µM)?
A: 13.5%

Q: What about the “Gene expression Percent of PC (%)” value (CYP2C8 mRNA; female, human, 48 h, 20 µM) of the same molecule?
A: 3.97%

Q: What about the “Gene expression Percent of PC (%)” value (CYP2C8 mRNA; male, human, 48 h, 3 µM) of the same molecule?
A: 9.01%

Reference: publication PMC11211886 (Frontiers in Pharmacology, 2024)
